Laboratory results reported in publication PMC9959258, “Discovery of Polyphenolic Natural Products as SARS-CoV-2 M^pro Inhibitors for COVID-19” (Pharmaceuticals, 2023).
pEC50, pIC50: −log10 of the molar value. “Also recorded” adds a separate entry of the source. Like-named read-outs stand apart in the source and are kept apart here.

Experiments:
SARS-CoV-2 M^pro = SARS-CoV-2 M^pro (Severe acute respiratory syndrome coronavirus 2, UniProt P0DTD1); assay: biochemical; assay type: biochemical; details: for inhibition at 10 µM: read-out: SARS-CoV-2 M^pro % Inhibition at 10 μM; for M^pro inhibition, result in words: tested at 10 µM
nitric oxide synthesis = details: background statement, no reference given; read-out: IC50 for reduction of nitric oxide synthesis; cited from earlier work
HIV-1 protease = details: background statement, no reference given; cited from earlier work
[1] = test system: prostaglandin E2 (PGE2) synthesis; details: background statement, no reference given; read-out: IC50 for reduction of prostaglandin E2 synthesis; cited from earlier work
fatty acid synthase = details: background statement, no reference given; cited from earlier work
[2] = test system: SARS-CoV-2 isolate NK, Pango lineage B.1.513; assay: microbe, parasite or virus in culture; assay type: cell-based; details: for pEC50: read-out: EC50 antiviral activity; for inhibition at 10 µM: Severe acute respiratory syndrome coronavirus 2, Calu-3, 24 h, read-out: inhibition of viral titers; for inhibition of viral titers: 10 µM
[3] = Dynamic light scattering (DLS) for colloidal particle formation; assay type: physicochemical; details: 31.6 µM, 50 mM KPi pH 7.0, 1% DMSO
[4] = biological target: T1, malate dehydrogenase (MDH) (Sus scrofa, UniProt P00346); assay type: biochemical; details: 31.6 µM, with or without 0.01% (v/v) Triton X-100
T1 sequence (P00346 25-338): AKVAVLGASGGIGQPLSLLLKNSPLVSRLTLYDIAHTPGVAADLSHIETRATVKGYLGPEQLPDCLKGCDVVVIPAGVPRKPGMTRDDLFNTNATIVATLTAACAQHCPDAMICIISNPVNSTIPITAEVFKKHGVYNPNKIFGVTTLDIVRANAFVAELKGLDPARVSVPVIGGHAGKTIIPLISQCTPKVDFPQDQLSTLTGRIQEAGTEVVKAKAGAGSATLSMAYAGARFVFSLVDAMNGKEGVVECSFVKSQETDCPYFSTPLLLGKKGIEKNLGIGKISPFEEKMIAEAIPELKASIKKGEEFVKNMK

[5] = FRET assay, 50 nM M^pro, 10 min preincubation
[6] = compound at 10 μM, FRET assay, 50 nM M^pro
[7] = Severe acute respiratory syndrome coronavirus 2, 24 h

Compound	pIC50 (SARS-CoV-2 M^pro; [5])	inhibition at 10 µM (SARS-CoV-2 M^pro; [6]) [%]	other results
C=C(C)C1CCC2=CC(=O)CC(C)C2(C)C1 (single isomer, unassigned; (+)) [(+)-Nootkaton]	< 5.00	32	
COc1c(O)cc2oc3cc(O)c(CC=C(C)C)c(O)c3c(=O)c2c1CC=C(C)C [α-Mangostin]	4.60		pIC50 (nitric oxide synthesis): 4.95; pIC50 (HIV-1 protease): 5.29; pIC50 [1]: 4.91; pIC50 (fatty acid synthase): 5.26
CC1=C2C3OC(=O)C(C)C3CCC2(C)C=CC1=O (stereo not drawn) [(−)-α-Santonin]	< 5.00	24.1	
O=C(/C=C/c1ccc(O)c(O)c1/C=C/c1ccc(O)c(O)c1)O[C@H](Cc1ccc(O)c(O)c1)C(=O)O [Salvianolic acid A]		50.8	
C[C@@H]1O[C@@H](Oc2c(-c3ccc(O)c(O)c3)oc3cc(O)cc(O)c3c2=O)[C@H](O)[C@H](O)[C@H]1O [Quercitrin]	< 5.00	2.42	M^pro inhibition, result in words (SARS-CoV-2 M^pro): unable to inhibit the M^pro enzyme
O=c1cc(-c2cc(O)c(O)c(O)c2)oc2cc(O)cc(O)c12 [Tricetin]	5.11	72.3	
CCCCCCCCCCC[C@@H](C[C@@H]1OC(=O)[C@H]1CCCCCC)OC(=O)[C@H](CC(C)C)NC=O [Orlistat, reference compound]	< 5.00	21	
CC(C)=CCC[C@]1(C)C=Cc2c(O)c3c(c(CC=C(C)C)c2O1)O[C@]12C(=C[C@@H]4C[C@H]1C(C)(C)O[C@@]2(C/C=C(/C)C(=O)O)C4=O)C3=O [Gambogic acid]	< 5.00	22.8	
C=C1C(=O)O[C@@H]2/C=C(\C)CC/C=C(\C)CC[C@@H]12 [Costunolide]	< 5.00	28	
CC(C)C(=O)OC[C@H]1O[C@@H](n2ccc(NO)nc2=O)[C@H](O)[C@@H]1O [Molnupiravir, reference compound]			pEC50 [2, 7]: 8.26
C=C1C(=O)OC2CC3(C)CCCC(C)C3=CC12 (stereo not shown) [Alantolacton]	< 5.00	27.6	
C=C1C(=O)[C@]23[C@H](O)[C@H]1CC[C@H]2[C@@]12CO[C@]3(O)[C@@H](O)[C@@H]1C(C)(C)CC[C@@H]2O [Oridonin]		81.9	pEC50 [2, 7]: 7.89; inhibition at 10 µM [2]: 89%
C=C1CC[C@H]2C(=C)CC[C@H]3C(=C)C(=O)O[C@@H]3[C@@H]12 [Dehydrocostus lactone]	< 5.00	13.4	
COC(=O)C1=CO[C@@H](O[C@@H]2O[C@H](CO)[C@@H](O)[C@H](O)[C@H]2O)[C@@H]2[C@@H](C)[C@@H](O)C[C@H]12 [Loganin]		29.4	pIC50 (SARS-CoV-2 M^pro): < 5.00
C[C@]12CC[C@H](O)C[C@H]1CC[C@@H]1[C@@H]2CC[C@]2(C)[C@@H](c3ccc(=O)oc3)C[C@H]3O[C@]132 [Resibufogenin]			pIC50 (SARS-CoV-2 M^pro): < 5.00; inhibition at 10 µM (SARS-CoV-2 M^pro): 6.32%
Cc1coc2c1C(=O)C(=O)c1c-2ccc2c(C)cccc12 [Tanshinone I]		7.03	
COC1=C[C@@H]2[C@@H]3Cc4ccc(OC)c(O)c4[C@]2(CCN3C)CC1=O [Sinomenine]			pIC50 (SARS-CoV-2 M^pro): < 5.00; inhibition at 10 µM (SARS-CoV-2 M^pro): 4.8%
COc1ccc2ccc(=O)oc2c1CC=C(C)C [Osthole]	< 5.00	4.98	
O=c1c(O)c(-c2ccc(O)c(O)c2)oc2cc(O)ccc12 [Fisetin]	< 5.00		SARS-CoV-2 M^pro % Inhibition at 10 μM (SARS-CoV-2 M^pro; [6]): −11.21%
O=C1O[C@H]([C@@H](O)CO)C(O)=C1O [L-Ascorbic acid]	< 5.00	22.2	
O=c1cc(-c2ccc(O)c(O)c2)oc2cc(O)cc(O)c12 [Luteoline]	< 5.00	9.65	M^pro inhibition, result in words (SARS-CoV-2 M^pro): unable to inhibit M^pro
C=C1C(=O)OC2C1CCC(C)=CCCC1(C)OC21 (single isomer, unassigned; (-)) [(−)-Parthenolide]	< 5.00	20.1	
O=C(/C=C/c1ccc(O)c(O)c1)O[C@H](Cc1ccc(O)c(O)c1)C(=O)O [Rosmarinic acid]	5.16	50.6	pEC50 [2, 7]: 7.78; inhibition at 10 µM [2]: 81%
Myricitrin			SARS-CoV-2 M^pro % Inhibition at 10 μM (SARS-CoV-2 M^pro; [6]): 11.67%; M^pro inhibition, result in words (SARS-CoV-2 M^pro): did not, however, inhibit M^pro; M^pro inhibition, result in words (SARS-CoV-2 M^pro; listed as myricitrin): did not inhibit M^pro
O=C(OC1Cc2c(O)cc(O)cc2OC1c1cc(O)c(O)c(O)c1)c1cc(O)c(O)c(O)c1 [L-Epigallocatechin gallate]		105	M^pro inhibition, result in words (SARS-CoV-2 M^pro): completely inhibit the SARS-CoV-2 M^pro activity; colloidal-like particle formation by DLS ([3]; listed as ECGC): do not form colloidal-like particles; colloidal-like particle formation by DLS ([3]; listed as EGCG): neither of these compounds produced colloidal-like particles; MDH inhibition with 0.01% Triton X-100 (detergent reversibility) [4]: reversed in the presence of detergent; inhibition of viral titers [2]: 81.4%; pEC50 [2]: 6.94
Oc1cc(O)cc(/C=C/c2ccc(O)c(O)c2)c1 [Piceatannol]	5.69	76.9	pEC50 [2, 7]: 8.47; inhibition at 10 µM [2]: 81%
O=c1cc(-c2ccc(O)cc2)oc2cc(O)c(O)c(O)c12 [Scutellarein]		76.1	pEC50 [2, 7]: 8.59; inhibition at 10 µM [2]: 87%
O=c1c(O)c(-c2cc(O)c(O)c(O)c2)oc2cc(O)ccc12 [Robinetin]	6.02	86.1	colloidal-like particle formation by DLS [3]: neither of these compounds produced colloidal-like particles; also recorded: do not form colloidal-like particles; MDH inhibition with 0.01% Triton X-100 (detergent reversibility) [4]: reversed in the presence of detergent; inhibition of viral titers [2]: 89.6%; pEC50 [2]: 8.89
Oc1ccc(/C=C/c2cc(O)cc(O)c2)cc1 [Resveratrol]	< 5.00	5.96	M^pro inhibition, result in words (SARS-CoV-2 M^pro): unable to inhibit the enzyme
CCOC1=C(O)C(=O)O[C@@H]1[C@@H](O)CO [3-O-Ethyl-L-ascorbic acid]		24.9	pIC50 (SARS-CoV-2 M^pro): < 5.00
